Measured values taken from patent publication US9737525B2, “Small molecule activators of NRF2 pathway” (The General Hospital Corporation, priority 2013, dated 2017).

Columns and labels:
dopaminergic neurons = experiment: MPTP mouse model of Parkinson's disease; format: in vivo
Method: Male C57BL/6 mice (˜25 g) from Charles River Laboratories, Wilmington, Mass. were housed in temperature- and humidity-controlled rooms with a 12 hr dark: light cycle and had free access to food and water. Subacute MPTP paradigm (20 mg/kg i.p. injection once daily for 4 days) was employed to test dose response of MIND4 at 30 mg/kg, 60 mg/kg, or 90 mg/kg (i.p. 10 min before and 50 min after each MPTP injection). The effective dose of 60 mg/kg was used in the subsequent experiments (i.p. 10 min before and 50 min after each MPTP injection). Control animals received saline (control for MPTP) and 10% propylene glycol and 90% dextrose as vehicle for MIND4 by i.p. Mice were sacrificed 7 days after the last MPTP administration and striatal DA and metabolite HVA were determined by high performance liquid chromatography (HPLC) coupled with electrochemical detection (ECD) Immunostaining for tyrosine hydroxylase (TH), a marker for dopaminergic neurons was performed using mouse anti-TH antibody (Sigma, ST. Louis, Mo.). Total numbers of TH positive neurons in the substantia nigra (SN) were counted under blinded conditions using the Bioquant Image Analysis System (R&M Biometrics, Nashville, Tenn.).
The protective effects of CPD4 have been confirmed in both acute and subchronic PTP paradigms by comprehensive behavioral, neurochemical, and neuropathological evaluations (FIG. 18). CPD4 was administrated i.p. at 20 mg/kg 10 min before and 50 min after MPTP 20 mg/kg i.p. once daily for 4 days (subchronic regimen) (FIG. 18A). High performance liquid chromatography (HPLC) coupled with electrochemical detection was used to show attenuated dopamine (DA) loss induced by MPTP in the striatum (FIG. 18B). Dopaminergic cell counts in the substantia nigra (SN) were also measured in treated mice and compared to the control (MPTP group) (FIG. 18C). Tyrosine hydroxylase (TH) immunostained dopaminergic neurons were also imaged in the SN (FIG. 18D).

[1] = system: Drosophila expressing mutant Htt exon 1; experiment: Drosophila model of HD, photoreceptor neuron (rhabdomere) survival; format: in vivo; conditions: 10 μM, treated vs. untreated flies, day 7 after eclosion
Method: Compound treatment of Drosophila HD model and efficacy analysis of MIND4 effects on photoreceptor neurons was performed as described (Steffan et al., 2001; Pallos et al., 2008). Drosophila models have been important in the genetic identification of pathological and neuroprotective mechanisms as well as for testing therapeutic candidates in HD (Marsh et al., 2003). In wild type flies, seven rhabdomeres (photoreceptor neurons) are visible in the adult eye, whereas chronic expression of mHTTex1 causes progressive degeneration of these neurons, detected as a reduction of rhabdomere number. Rhabdomeres were counted on day 7 after eclosion in animals treated with varying doses of MIND4. The indicated numbers of flies were scored for each condition (n) with the number of ommatidia scored indicated in parentheses. Trial 1: DMSO=11(449); MIND4 1 μM=3(112); MIND4 10 μM=9(337); […]=9(364). […]
MIND4 was tested for its potential efficacy by monitoring the degeneration of photoreceptor neurons in the eyes of Drosophila expressing expanded repeat HTT exon 1 protein in all neurons beginning during embryogenesis (Steffan et al., 2001). […] Chronic expression of mutant HTT causes progressive degeneration of these neurons, detected as a reduction of rhabdomeres number. Rhabdomeres were counted on day 7 after eclosion in animals treated with varying doses of MIND4. […]

O=[N+]([O-])c1ccc(Sc2nnc(COc3ccccc3)n2-c2ccccc2)c2ncccc12 [MIND4, 5-nitro-8-{[5-(phenoxymethyl)-4-phenyl-4H-1,2,4-triazol-3-yl]thio}quinoline]
MPTP induced DA loss in the striatum (dopaminergic neurons; 60 mg/kg i.p.): mild but significant protection | Residual DA and DA turnover rate (HVA/DA) (dopaminergic neurons; 60 mg/kg vs MPTP group): increased level of residual DA and decreased DA turnover rate | Dopaminergic neurons in the SN (stereological analysis) (dopaminergic neurons; vs MPTP alone group): more remaining dopaminergic neurons | Relative rescue of photoreceptor neurons, Trial 1 [1]: 22.6% | Relative rescue of photoreceptor neurons, Trial 2 [1]: 20.7%
